Patent publication US8148391B2 (Cephalon, Inc., priority 2006, dated 2012)
Where two headings read alike, the source gives them in different places.

Tests used:
[1] = target: T1, c-Met (cytoplasmic domain) (Homo sapiens, UniProt P08581); assay: c-Met Kinase Assay (same methods as for ALK, with modifications); assay type: biochemical
T1 construct: 10 ng/mL c-Met (cytoplasmic domain, Invitrogen Corporation #PV3143); purchased Invitrogen Corporation PV3143
Method in brief: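 Steps: coat wells with PLC-γ (10 μg/mL, Tris-buffered saline); add 10 ng/mL c-Met cytoplasmic domain to initiate; incubate 15 min, 37° C; detect phosphoproduct via Eu-N1 PT66 antibody.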

[2] = target: T2, baculovirus-expressed ALK (Homo sapiens, UniProt Q9UM73); assay: ALK Kinase Assay (ELISA-type, time-resolved fluorescence); assay type: biochemical
T2 construct: host or cells: baculovirus expression system
Method in brief: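 Wells were coated with phospholipase C-γ at 10 μg/mL in Tris-buffered saline. Adding 30 ng/ml enzyme started the reaction, which ran at 37° C for 15 minutes before Eu-N1 PT66 antibody detection. Percent inhibition versus log10 concentration gave IC50 by variable-slope fit.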

[3] = c-Met kinase inhibition, 1 μM ATP, read-out: cMet Activity
[4] = ALK kinase inhibition, 1 μM ATP, read-out: ALK Activity
[5] = c-Met kinase inhibition, 1 μM ATP (Km level), read-out: cMet Activity
[6] = ALK kinase inhibition, 1 μM ATP (Km level), read-out: ALK Activity
[7] = 1 μM ATP (Km level), read-out: cMet Activity (c-Met Kinase Inhibition, IC50)
[8] = 1 μM ATP (Km level), read-out: ALK Activity (ALK Kinase Inhibition, IC50)
[9] = 1 μM ATP (Km level), 10 ng/mL c-Met, read-out: cMet Activity (c-Met kinase inhibition, IC50 class)
[10] = 1 μM ATP (Km level), 30 ng/ml ALK, 37° C., 15 minutes, read-out: ALK Activity (ALK kinase inhibition, IC50 class)

T1 sequence (P08581 956-1390 limits assumed): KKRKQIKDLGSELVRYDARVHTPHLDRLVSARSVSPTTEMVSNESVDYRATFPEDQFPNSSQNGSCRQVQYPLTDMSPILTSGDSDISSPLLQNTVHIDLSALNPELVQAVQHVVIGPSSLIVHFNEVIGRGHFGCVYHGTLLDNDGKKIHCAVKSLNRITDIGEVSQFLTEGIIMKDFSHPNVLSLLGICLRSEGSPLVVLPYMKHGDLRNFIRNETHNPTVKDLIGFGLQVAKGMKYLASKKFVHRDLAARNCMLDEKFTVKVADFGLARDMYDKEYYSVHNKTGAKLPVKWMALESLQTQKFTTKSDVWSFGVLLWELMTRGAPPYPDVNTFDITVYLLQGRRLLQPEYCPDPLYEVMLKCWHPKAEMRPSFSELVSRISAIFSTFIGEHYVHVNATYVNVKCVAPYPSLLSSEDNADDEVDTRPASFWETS
T2 sequence (Q9UM73 19-1620): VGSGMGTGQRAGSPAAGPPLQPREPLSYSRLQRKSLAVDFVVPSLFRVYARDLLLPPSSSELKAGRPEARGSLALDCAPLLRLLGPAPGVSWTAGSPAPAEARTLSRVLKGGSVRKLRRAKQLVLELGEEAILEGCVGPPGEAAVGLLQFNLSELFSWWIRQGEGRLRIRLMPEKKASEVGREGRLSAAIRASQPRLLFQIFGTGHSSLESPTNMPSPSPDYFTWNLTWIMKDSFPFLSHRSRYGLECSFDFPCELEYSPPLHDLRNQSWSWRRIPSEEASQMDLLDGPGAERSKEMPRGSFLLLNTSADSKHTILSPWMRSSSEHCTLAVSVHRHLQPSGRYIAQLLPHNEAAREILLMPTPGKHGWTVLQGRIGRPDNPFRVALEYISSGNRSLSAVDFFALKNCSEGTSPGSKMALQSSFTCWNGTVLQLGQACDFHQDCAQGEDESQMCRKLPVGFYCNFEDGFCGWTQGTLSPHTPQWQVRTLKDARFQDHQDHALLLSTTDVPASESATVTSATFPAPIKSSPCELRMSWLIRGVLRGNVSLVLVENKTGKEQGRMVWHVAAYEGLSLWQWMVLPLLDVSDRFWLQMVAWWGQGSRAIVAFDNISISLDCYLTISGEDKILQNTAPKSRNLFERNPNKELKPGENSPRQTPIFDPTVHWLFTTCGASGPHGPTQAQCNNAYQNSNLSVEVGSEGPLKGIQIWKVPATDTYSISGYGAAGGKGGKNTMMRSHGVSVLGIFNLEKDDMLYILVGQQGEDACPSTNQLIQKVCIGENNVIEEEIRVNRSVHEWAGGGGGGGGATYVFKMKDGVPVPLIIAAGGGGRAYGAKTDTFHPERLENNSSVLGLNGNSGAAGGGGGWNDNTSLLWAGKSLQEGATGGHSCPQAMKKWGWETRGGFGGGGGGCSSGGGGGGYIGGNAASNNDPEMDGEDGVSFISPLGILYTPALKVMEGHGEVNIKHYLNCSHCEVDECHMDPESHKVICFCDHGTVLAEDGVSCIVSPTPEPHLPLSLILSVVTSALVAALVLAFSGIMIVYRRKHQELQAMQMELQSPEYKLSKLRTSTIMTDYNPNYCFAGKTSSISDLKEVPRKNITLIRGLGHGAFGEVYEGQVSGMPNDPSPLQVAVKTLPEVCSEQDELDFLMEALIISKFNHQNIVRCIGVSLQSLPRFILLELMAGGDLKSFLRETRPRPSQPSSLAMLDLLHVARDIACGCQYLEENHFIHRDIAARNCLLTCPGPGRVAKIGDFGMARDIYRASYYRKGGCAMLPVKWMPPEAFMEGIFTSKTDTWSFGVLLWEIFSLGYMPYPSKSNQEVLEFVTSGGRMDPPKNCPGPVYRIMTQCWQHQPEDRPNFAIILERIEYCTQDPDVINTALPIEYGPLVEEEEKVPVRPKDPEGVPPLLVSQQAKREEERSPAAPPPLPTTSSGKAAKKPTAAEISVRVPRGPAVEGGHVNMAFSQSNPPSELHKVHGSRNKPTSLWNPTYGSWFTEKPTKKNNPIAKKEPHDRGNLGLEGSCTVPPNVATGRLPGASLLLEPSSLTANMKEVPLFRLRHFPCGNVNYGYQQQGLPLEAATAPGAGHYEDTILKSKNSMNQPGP

## CCN1CC(O)(CO)COc2ccc(Nc3ncc(Cl)c(Nc4c(F)cccc4C(=O)NC)n3)cc21 (stereo not drawn) [Example 1720, 2-[5-Chloro-2-(9-ethyl-7-hydroxy-7-hydroxymethyl-6,7,8,9-tetrahydro-5-oxa-9-aza-benzocyclohepten-2-ylamino)-pyrimidin-4-ylamino]-3-fluoro-N-methyl-benzamide]
[1]; [3]
  IC50: 100 to 1000 nM
[2]; [4]
  IC50: < 100 nM

## COc1cc2c(cc1Nc1ncc(Cl)c(Nc3ccccc3S(=O)(=O)N3CCCC3)n1)CCN(CCO)CC2 [Example 1543, 2-(7-{5-Chloro-4-[2-(pyrrolidine-1-sulfonyl)-phenylamino]-pyrimidin-2-ylamino}-8-methoxy-1,2,4,5-tetrahydro-3-benzazepin-3-yl)-ethanol]
[1]; [3]
  IC50: 1000 to 10000 nM
[2]; [4]
  IC50: < 100 nM

## CCN1CCc2ccc(Nc3ncc(Cl)c(Nc4cccc(N5CCOCC5)c4)n3)cc2CC1 [Example 444, 5-Chloro-N*2*-(3-ethyl-2,3,4,5-tetrahydro-1H-benzo[d]azepin-7-yl)-N*4*-(3-morpholin-4-yl-phenyl)-pyrimidine-2,4-diamine]
[1]; [5]
  IC50: 1000 to 10000 nM
[2]; [6]
  IC50: < 100 nM

## CNC(=O)c1cccc(Cl)c1Nc1nc(Nc2ccc3c(c2)CCCC(=O)N3CCOC)ncc1Cl [Example 357, 3-Chloro-2-{5-chloro-2-[1-(2-methoxy-ethyl)-2-oxo-2,3,4,5-tetrahydro-1H-benzo[b]azepin-7-ylamino]-pyrimidin-4-ylamino}-N-methyl-benzamide]
[1]; [5]
  IC50: < 100 nM
[2]; [6]
  IC50: 1000 to 10000 nM

## COc1ccc(Nc2ncc(Cl)c(N[C@H]3[C@@H](C(N)=O)[C@@H]4C=C[C@H]3C4)n2)c2c1CCCC(N1CCOCC1)C2 (single isomer, unassigned) [Example 942]
[1]; [7]
  IC50: > 10000 nM
[2]; [8]
  IC50: 1000 to 10000 nM

## C=CCOc1cccc(F)c1Nc1nc(Nc2ccc3c(c2)CCOC(=O)N3C)ncc1Cl [Example 1780, 2-[4-(2-Allyloxy-6-fluoro-phenylamino)-5-chloro-pyrimidin-2-ylamino]-5-methyl-8,9-dihydro-5H-7-oxa-5-aza-benzocyclohepten-6-one]
[1]; [3]
  IC50: < 100 nM
[2]; [4]
  IC50: < 100 nM

## CNC(=O)c1ccccc1Nc1nc(Nc2ccc3c(c2)C(=O)NCCN3C)ncc1Cl [Example 428, 2-[5-Chloro-2-(1-methyl-5-oxo-2,3,4,5-tetrahydro-1H-benzo[e][1,4]diazepin-7-ylamino)-pyrimidin-4-ylamino]-N-methylbenzamide]
[1]; [5]
  IC50: < 100 nM
[2]; [6]
  IC50: < 100 nM

## CC(C)S(=O)(=O)c1cccc(F)c1Nc1nc(Nc2ccc3c(c2)-n2ccnc2CCC3)ncc1Cl [Example 1842, 5-Chloro-N*2*-(5,6-dihydro-4H-3,10b-diaza-benzo[e]azulen-9-yl)-N*4*-[2-fluoro-6-(propane-2-sulfonyl)-phenyl]-pyrimidine-2,4-diamine]
[1]; [3]
  IC50: < 100 nM
[2]; [4]
  IC50: < 100 nM

## CCN1C(=O)C(N(C)C)CCc2c1ccc(Nc1ncc(Cl)c(Nc3ccccc3S(=O)(=O)N(C)C)n1)c2OC (stereo not drawn) [Example 1348, 2-[5-Chloro-2-(3-dimethylamino-1-ethyl-6-methoxy-2-oxo-2,3,4,5-tetrahydro-1H-benzo[b]azepin-7-ylamino)-pyrimidin-4-ylamino]-N,N-dimethyl-benzenesulfonamide]
[1]; [9]
  IC50: > 10000 nM
[2]; [10]
  IC50: < 100 nM

## CCN1CCN(CC(=O)OCCOC)C(=O)c2ccc(Nc3ncc(Cl)c(Nc4c(F)cccc4C(=O)NC)n3)cc21 [Example 1458, {8-[5-Chloro-4-(2-fluoro-6-methylcarbamoyl-phenylamino)-pyrimidin-2-ylamino]-1-ethyl-5-oxo-1,2,3,5-tetrahydro-benzo[e][1,4]diazepin-4-yl}-acetic acid 2-methoxy-ethyl ester]
[1]; [3]
  IC50: < 100 nM
[2]; [4]
  IC50: 100 to 1000 nM

## COc1cc2c(cc1Nc1ncc(Cl)c(N[C@@H]3CCCC[C@H]3NS(C)(=O)=O)n1)CCN(CC(=O)N(C)C)CC2 [Example 258, 2-{7-[5-Chloro-4-((1R,2R)-2-methanesulfonylamino-cyclohexylamino)-pyrimidin-2-ylamino]-8-methoxy-1,2,4,5-tetrahydro-benzo[d]azepin-3-yl}-N,N-dimethyl-acetamide]
[1]; [5]
  IC50: > 10000 nM
[2]; [6]
  IC50: < 100 nM

## (1S,2S,3R,4R)-3-{5-Chloro-2-[7-(2,2-difluoro-ethylamino)-6,7,8,9-tetrahydro-5H-benzocyclohepten-2-ylamino]-pyrimidin-4-ylamino}-bicyclo[2.2.1]hept-5-ene-2-carboxylic acid amide [Example 677]
[1]; [7]
  IC50: > 10000 nM
[2]; [8]
  IC50: < 100 nM

## COc1cc2c(cc1Nc1ncc(Cl)c(Nc3ccccc3S(=O)(=O)N(C)C)n1)CCN(CC1COCCO1)CC2 (stereo not drawn) [Example 637, 2-[5-Chloro-2-(3-[1,4]dioxan-2-ylmethyl-8-methoxy-2,3,4,5-tetrahydro-1H-benzo[d]azepin-7-ylamino)-pyrimidin-4-ylamino]-N,N-dimethyl-benzenesulfonamide]
[1]; [7]
  IC50: 1000 to 10000 nM
[2]; [8]
  IC50: < 100 nM

## CCN1CCCC(C)(C)c2ccc(Nc3ncc(Cl)c(N[C@H]4[C@@H](C(N)=O)[C@@H]5C=C[C@H]4C5)n3)cc21 [Example 1634, (1S,2S,3R,4R)-3-[5-Chloro-2-(1-ethyl-5,5-dimethyl-2,3,4,5-tetrahydro-1H-benzo[b]azepin-8-ylamino)-pyrimidin-4-ylamino]-bicyclo[2.2.1]hept-5-ene-2-carboxylic acid amide]
[1]; [3]
  IC50: 1000 to 10000 nM
[2]; [4]
  IC50: < 100 nM

## CCN1CCN(CC)c2cc(Nc3ncc(Cl)c(N[C@H]4[C@@H]5CC[C@@H](C5)[C@H]4C(N)=O)n3)ccc2C1 [Example 717, (2-exo,3-exo)-3-[5-Chloro-2-(1,4-diethyl-2,3,4,5-tetrahydro-1H-1,4-benzodiazepin-8-ylamino)-pyrimidin-4-ylamino]bicyclo[2.2.1]heptane-2-carboxylic acid amide]
[1]; [7]
  IC50: 1000 to 10000 nM
[2]; [8]
  IC50: < 100 nM

## CNC(=O)c1ccccc1Nc1nc(Nc2ccc3c(c2)OCCCO3)ncc1Cl [Example 511]
[1]; [7]
  IC50: < 100 nM
[2]; [8]
  IC50: < 100 nM

## CC(C)N1C(=O)CCC(C)(C)c2ccc(Nc3ncc(Cl)c(N[C@H]4[C@@H](C(N)=O)[C@@H]5C=C[C@H]4C5)n3)cc21 [Example 1590, (1S,2S,3R,4R)-3-[5-Chloro-2-(1-isopropyl-5,5-dimethyl-2-oxo-2,3,4,5-tetrahydro-1H-benzo[b]azepin-8-ylamino)-pyrimidin-4-ylamino]-bicyclo[2.2.1]hept-5-ene-2-carboxylic acid amide]
[1]; [3]
  IC50: 1000 to 10000 nM
[2]; [4]
  IC50: < 100 nM

## COc1ccc(Nc2nc(Nc3cc4c(cc3OC)CN(CC3CC3)CC(=O)N4C)ncc2Cl)c(-n2cccn2)c1 [Example 748, 8-[5-Chloro-4-(4-methoxy-2-pyrazol-1-yl-phenylamino)-pyrimidin-2-ylamino]-cyclopropylmethyl-7-methoxy-1-methyl-1,3,4,5-tetrahydro-benzo[e][1,4]diazepin-2-one]
[1]; [7]
  IC50: > 10000 nM
[2]; [8]
  IC50: < 100 nM

## CCN1C(=O)CCCc2cc(Nc3ncc(Cl)c(Nc4ccc(OC)cc4-n4cccn4)n3)c(OC)cc21 [Example 614, 7-[5-Chloro-4-(4-methoxy-2-pyrazol-1-yl-phenylamino)-pyrimidin-2-ylamino]-1-ethyl-8-methoxy-1,3,4,5-tetrahydro-benzo[b]azepin-2-one]
[1]; [7]
  IC50: > 10000 nM
[2]; [8]
  IC50: < 100 nM

## COc1cc2c(cc1Nc1ncc(Cl)c(Nc3ccc(N4CCOCC4)cc3OC)n1)CCN(Cc1ncco1)CC2 [Example 1180, 5-Chloro-N*4*-(2-methoxy-4-morpholin-4-yl-phenyl)-N*2*-(8-methoxy-3-oxazol-2-ylmethyl-2,3,4,5-tetrahydro-1H-benzo[d]azepin-7-yl)-pyrimidine-2,4-diamine]
[1]; [9]
  IC50: > 10000 nM
[2]; [10]
  IC50: < 100 nM

## COCC(COC)N1CCc2cc(Nc3ncc(Cl)c(Nc4ccc(C(N)=O)cc4OC)n3)c(OC)cc2CC1 [Example 1153, 4-{5-Chloro-2-[8-methoxy-3-(2-methoxy-1-methoxymethyl-ethyl)-2,3,4,5-tetrahydro-1H-benzo[d]azepin-7-ylamino]-pyrimidin-4-ylamino}-3-methoxy-benzamide]
[1]; [9]
  IC50: > 10000 nM
[2]; [10]
  IC50: < 100 nM

## CCCCNC(=O)c1ccccc1Nc1nc(Nc2ccc3c(c2)C(C)(C)CCC(=O)N3)ncc1Cl [Example 1027, N-Butyl-2-[5-chloro-2-(5,5-dimethyl-2-oxo-2,3,4,5-tetrahydro-1H-benzo[b]azepin-7-ylamino)-pyrimidin-4-ylamino]-benzamide]
[1]; [9]
  IC50: 1000 to 10000 nM
[2]; [10]
  IC50: < 100 nM

## COCCN1CCc2cc(Nc3ncc(Cl)c(NC4C5C=CC(C5)C4C(=O)NC(C)C)n3)c(OC)cc2CC1 (stereo not drawn) [Example 605, (2-exo-3-exo)-3-{5-Chloro-2-[8-methoxy-3-(2-methoxy-ethyl)-2,3,4,5-tetrahydro-1H-benzo[d]azepin-7-ylamino]-pyrimidin-4-ylamino}-bicyclo[2.2.1]hept-5-ene-2-carboxylic acid isopropylamide]
[1]; [7]
  IC50: > 10000 nM
[2]; [8]
  IC50: < 100 nM

## COc1ccc(Nc2nc(Nc3cc4c(cc3OC)CCN(CC3COCCO3)CC4)ncc2Cl)c(-n2cccn2)c1 (stereo not drawn) [Example 636, 5-Chloro-N*2*-(3-[1,4]dioxan-2-ylmethyl-8-methoxy-2,3,4,5-tetrahydro-1H-benzo[d]azepin-7-yl)-N*4*-(4-methoxy-2-pyrazol-1-yl-phenyl)-pyrimidine-2,4-diamine]
[1]; [7]
  IC50: > 10000 nM
[2]; [8]
  IC50: < 100 nM
